Data on 2 compounds can be found in patent publication US9340507B2, “Substituted 4-pyridones and their use as inhibitors of neutrophil elastase activity” (Boehringer Ingelheim International GmbH, priority 2012, dated 2016).

The target in series [1] is Human neutrophil elastase (Homo sapiens (Human), UniProt P08246). In words: Human Neutrophil Elastase Assay. The format is biochemical. As to conditions: substrate MeOSuc-Ala-Ala-Pro-Val-AMC 250 μM, pH 7.5, fluorescence.
Series [2] in a line: Determination of aqueous solubility from DMSO stock solutions (kinetic solubility method). Particulars: McIlvaine buffer pH 6.8, 24 h shaking, 2.5% DMSO, range 0.001 to 0.125 mg/ml. The series is classed as physicochemical. The procedure: Determination of Aqueous Solubility from DMSO Stock Solutions (“Kinetic Solubility Method”)
The aqueous solubility of examples of this invention is determined by comparing the amount dissolved in buffer to the amount dissolved in an acetonitrile/water (1/1) solution. Starting from a 10 mM DMSO stock solution, aliquots are diluted with acetonitrile/water (1/1) and McIlvaine buffer pH 6.8, respectively. After 24 h of shaking, the liquid phase is filtered and analyzed by LC-UV. The amount dissolved in buffer is compared to the amount dissolved in the acetonitrile/water (1/1) solution. Solubility is measured from 0.001 to 0.125 mg/ml at a DMSO concentration of 2.5%.

Chain of Human neutrophil elastase (P08246 30-267): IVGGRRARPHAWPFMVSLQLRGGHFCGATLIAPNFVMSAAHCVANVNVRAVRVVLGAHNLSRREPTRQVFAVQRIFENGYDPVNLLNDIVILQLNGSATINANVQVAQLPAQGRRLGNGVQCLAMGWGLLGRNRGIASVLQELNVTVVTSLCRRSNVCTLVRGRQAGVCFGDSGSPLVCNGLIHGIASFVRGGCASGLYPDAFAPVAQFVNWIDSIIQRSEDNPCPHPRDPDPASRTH

For the compound `Cc1c(-c2cccc(C(F)(F)F)c2)c(=O)c(C(=O)NCc2ccc([S+](C)[O-])cc2)cn1C(C)C` (single isomer, unassigned) [Example 27.1A], the IC50 in series [1] was 5.4 nM. The “aqueous solubility at pH 6.8” value in series [2] is recorded as 0.081 mg/mL.
Take `Cc1c(-c2cccc(C(F)F)c2)c(=O)c(C(=O)NCc2ccc(S(C)(=O)=O)cc2)cn1C(C)C` [Example 4.14]: half-maximal inhibition in series [1] (IC50) required 11 nM. Besides, the “aqueous solubility at pH 6.8” value in series [2] was found to be 0.076 mg/mL.
